Reference: paper PMC8636460, “Pharmacological and Biophysical Characteristics of Picrotoxin-Resistant, δSubunit-Containing GABAA Receptors” (Frontiers in Synaptic Neuroscience, 2021)

How the values were obtained:
[1] = target: T1, α4β2δ GABAAR (human α4, rat β2, rat δ with N-terminal FLAG) (Rattus norvegicus (beta2, delta); Homo sapiens (alpha4), UniProt P18506+P48169+P63138, P18506:T285Y); test: whole-cell patch clamp in transfected N2a cells, agonist concentration response, Hill fit; format: cell-based
T1 construct: gene GABRA4; free full subunits transiently transfected (cDNA α:β:δ 1:1:2) in mouse Neuro-2a cells

[2] = target: T2, α4β2δ GABAAR (human α4, rat β2, rat δ with N-terminal FLAG) (Rattus norvegicus (beta2, delta); Homo sapiens (alpha4), UniProt P18506+P48169+P63138); test: as above; format: cell-based
T2 construct: gene GABRA4; free full subunits transiently transfected (cDNA α:β:δ 1:1:2) in mouse Neuro-2a cells
T2 sequence (P63138 26-474): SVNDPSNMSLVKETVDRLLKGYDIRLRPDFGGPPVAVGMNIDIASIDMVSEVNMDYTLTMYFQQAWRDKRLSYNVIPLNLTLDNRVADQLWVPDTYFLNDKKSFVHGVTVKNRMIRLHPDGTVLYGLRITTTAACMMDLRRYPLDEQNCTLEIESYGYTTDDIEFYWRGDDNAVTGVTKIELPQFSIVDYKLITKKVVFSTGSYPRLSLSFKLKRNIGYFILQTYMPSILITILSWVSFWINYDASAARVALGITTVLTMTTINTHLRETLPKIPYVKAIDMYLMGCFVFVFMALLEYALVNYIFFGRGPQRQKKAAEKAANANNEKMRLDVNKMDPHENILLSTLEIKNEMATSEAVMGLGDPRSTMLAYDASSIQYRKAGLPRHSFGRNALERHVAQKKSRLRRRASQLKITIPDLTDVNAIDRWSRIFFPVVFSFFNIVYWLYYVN
T2 sequence (P48169 36-554): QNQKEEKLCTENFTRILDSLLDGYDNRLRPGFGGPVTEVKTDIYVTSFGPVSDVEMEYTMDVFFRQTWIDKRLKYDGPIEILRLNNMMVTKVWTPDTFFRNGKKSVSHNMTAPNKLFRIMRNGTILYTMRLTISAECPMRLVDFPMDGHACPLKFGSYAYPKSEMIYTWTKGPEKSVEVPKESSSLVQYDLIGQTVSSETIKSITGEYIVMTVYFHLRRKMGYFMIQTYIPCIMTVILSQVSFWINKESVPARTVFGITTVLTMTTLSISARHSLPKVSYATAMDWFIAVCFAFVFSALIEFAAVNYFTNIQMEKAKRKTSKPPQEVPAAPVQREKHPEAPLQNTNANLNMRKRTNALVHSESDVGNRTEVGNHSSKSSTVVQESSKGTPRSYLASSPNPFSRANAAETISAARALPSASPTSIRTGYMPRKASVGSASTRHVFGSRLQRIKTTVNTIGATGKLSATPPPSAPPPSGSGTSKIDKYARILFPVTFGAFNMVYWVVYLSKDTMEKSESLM
T2 sequence (P18506 25-449): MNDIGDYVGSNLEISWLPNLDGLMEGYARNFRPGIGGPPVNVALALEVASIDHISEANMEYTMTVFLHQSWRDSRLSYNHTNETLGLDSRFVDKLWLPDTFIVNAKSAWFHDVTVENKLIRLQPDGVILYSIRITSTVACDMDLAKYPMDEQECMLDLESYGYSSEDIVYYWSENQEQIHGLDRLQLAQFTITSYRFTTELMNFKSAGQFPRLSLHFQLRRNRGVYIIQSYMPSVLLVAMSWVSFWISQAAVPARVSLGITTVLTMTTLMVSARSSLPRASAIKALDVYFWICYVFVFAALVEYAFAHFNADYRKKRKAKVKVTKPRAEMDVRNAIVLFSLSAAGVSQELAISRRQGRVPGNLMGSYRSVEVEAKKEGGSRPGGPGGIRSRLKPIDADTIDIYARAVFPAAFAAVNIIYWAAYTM

T1 sequence (P48169 36-554): as the sequence (P48169 36-554) above
T1 sequence (P63138 26-474): as the sequence (P63138 26-474) above

Work on Oc1noc2c1CCNC2 [THIP, 4,5,6,7-tetrahydroisoxazolo[5,4-c]pyridin-3-ol] yielded an EC50 [1] of 16.7 µM and an EC50 [2] of 38.7 µM.
